# Reference: PubChem BioAssay (NCI)
#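 Following 48 hours of exposure in 96-well plates, responses at five concentrations were used to interpolate endpoints linearly. TGI marks complete inhibition of growth.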
# Assays:
# Experiment in all cases: NCI tumour cell line growth inhibition, 48 h
# [1] = tested on: 786-0 renal
# [2] = tested on: SK-MEL-2 melanoma
# [3] = tested on: SF-539 CNS
# [4] = tested on: NCI-H522 lung
# [5] = tested on: LXFL 529 NSCLC
# [6] = tested on: KM20L2 colon
# [7] = tested on: CCRF-CEM leukemia
# [8] = tested on: TK-10 renal
# [9] = tested on: MALME-3M melanoma
# [10] = tested on: OVCAR-5 ovarian
# [11] = tested on: EKVX NSCLC
# [12] = tested on: A549 NSCLC
# [13] = tested on: M19-MEL melanoma
# [14] = tested on: DMS 114 small cell lung
# [15] = tested on: HCT-15 colon
# [16] = tested on: SF-295 CNS
# [17] = tested on: KM12 colon
# [18] = tested on: SF-268 CNS
# [19] = tested on: SN12C renal
# [20] = tested on: HOP-92 NSCLC
# [21] = tested on: RXF 393 renal
# [22] = tested on: M14 melanoma
# [23] = tested on: HCT-116 colon
# [24] = tested on: RXF-631 renal
# [25] = tested on: SK-MEL-5 melanoma
# [26] = tested on: U251 CNS
# [27] = tested on: COLO 205 colon
# [28] = tested on: SNB-78 CNS
# [29] = tested on: LOX IMVI melanoma
# [30] = tested on: A498 renal
# [31] = tested on: RPMI-8226 leukemia
# [32] = tested on: HOP-18 NSCLC
# [33] = tested on: SR leukemia
# [34] = tested on: UACC-62 melanoma
# [35] = tested on: SW-620 colon
# [36] = tested on: ACHN renal
# [37] = tested on: IGROV1 ovarian
# [38] = tested on: NCI-H460 lung
# [39] = tested on: NCI-H23 lung
# [40] = tested on: HL-60(TB) leukemia
# [41] = tested on: DMS 273 small cell lung
# [42] = tested on: HOP-62 NSCLC
# [43] = tested on: MOLT-4 leukemia
# [44] = tested on: HT29 colon
# [45] = tested on: CAKI-1 renal
# [46] = tested on: UACC-257 melanoma
# [47] = tested on: OVCAR-3 ovarian
# [48] = tested on: NCI-H226 lung
# [49] = tested on: SK-OV-3 ovarian
# [50] = tested on: HCC-2998 colon
# [51] = tested on: UO-31 renal
# [52] = tested on: SNB-19 CNS
# [53] = tested on: SNB-75 CNS
# [54] = tested on: SK-MEL-28 melanoma
# [55] = tested on: OVCAR-4 ovarian
# [56] = tested on: OVCAR-8 ovarian
# [57] = tested on: K-562 leukemia
# [58] = tested on: MCF7 breast
# [59] = tested on: SN12K1 renal
# [60] = tested on: XF 498 CNS
# [61] = tested on: P388 leukemia
# [62] = tested on: DLD-1 colon
# [63] = tested on: NCI/ADR-RES ovarian
smiles,measurement,setting,value
Cc1c(C(=O)CC(=O)C(=O)Nc2cccc(C(F)(F)F)c2)[n+](=O)c2ccccc2n1[O-],TGI,[1],21.5 µM
same,TGI,[2],18.5 µM
same,TGI,[3],8.58 µM
same,TGI,[4],5.5 µM
same,TGI,[5],14.1 µM
same,TGI,[6],11.8 µM
same,TGI,[7],7.24 µM
same,TGI,[8],79.7 µM
same,TGI,[9],13.3 µM
same,TGI,[10],19.5 µM
same,TGI,[11],20.3 µM
same,TGI,[12],32.1 µM
same,TGI,[13],3.69 µM
same,TGI,[14],4.43 µM
same,TGI,[15],10.3 µM
same,TGI,[16],23.4 µM
same,TGI,[17],21.7 µM
same,TGI,[18],14.4 µM
same,TGI,[19],11 µM
same,TGI,[20],38.9 µM
same,TGI,[21],39.5 µM
same,TGI,[22],11.4 µM
same,TGI,[23],10.2 µM
same,TGI,[24],11 µM
same,TGI,[25],14 µM
same,TGI,[26],11 µM
same,TGI,[27],13.4 µM
same,TGI,[28],25.2 µM
same,TGI,[29],12.7 µM
same,TGI,[30],35.8 µM
same,TGI,[31],11.7 µM
same,TGI,[32],25.5 µM
same,TGI,[33],8.82 µM
same,TGI,[34],7.55 µM
same,TGI,[35],12.2 µM
same,TGI,[36],15.9 µM
same,TGI,[37],9.34 µM
same,TGI,[38],8.5 µM
same,TGI,[39],40.5 µM
same,TGI,[40],7.65 µM
same,TGI,[41],10.3 µM
same,TGI,[42],57.6 µM
same,TGI,[43],7.56 µM
same,TGI,[44],17.8 µM
same,TGI,[45],21 µM
same,TGI,[46],6.73 µM
same,TGI,[47],4.92 µM
same,TGI,[48],80.8 µM
same,TGI,[49],50.2 µM
same,TGI,[50],16.1 µM
same,TGI,[51],30.2 µM
same,TGI,[52],19.9 µM
same,TGI,[53],7.86 µM
same,TGI,[54],27.2 µM
same,TGI,[55],13.3 µM
same,TGI,[56],6.34 µM
same,TGI,[57],14.1 µM
O=S(=O)(O)c1ccc(N=Nc2ccc(N=Nc3ccc(/C=C/c4ccc(N=[N+]([O-])c5ccc(/C=C/c6ccc(N=Nc7ccc(N=Nc8ccc(S(=O)(=O)O)cc8)c8ccccc78)cc6S(=O)(=O)O)c(S(=O)(=O)O)c5)cc4S(=O)(=O)O)c(S(=O)(=O)O)c3)c3ccccc23)cc1,TGI,[2],> 100 µM
same,TGI,[3],> 100 µM
same,TGI,[4],99.7 µM
same,TGI,[6],> 100 µM
same,TGI,[7],> 100 µM
same,TGI,[9],> 100 µM
same,TGI,[10],> 100 µM
same,TGI,[11],> 100 µM
same,TGI,[12],> 100 µM
same,TGI,[13],> 100 µM
same,TGI,[14],> 100 µM
same,TGI,[15],> 100 µM
same,TGI,[16],> 100 µM
same,TGI,[17],> 100 µM
same,TGI,[18],> 100 µM
same,TGI,[19],> 100 µM
same,TGI,[20],> 100 µM
same,TGI,[21],> 100 µM
same,TGI,[23],> 100 µM
same,TGI,[58],> 100 µM
same,TGI,[25],> 100 µM
same,TGI,[26],> 100 µM
same,TGI,[27],> 100 µM
same,TGI,[28],> 100 µM
same,TGI,[29],> 100 µM
same,TGI,[30],> 100 µM
same,TGI,[31],> 100 µM
same,TGI,[32],> 100 µM
same,TGI,[34],> 100 µM
same,TGI,[35],> 100 µM
same,TGI,[59],> 100 µM
same,TGI,[37],> 100 µM
same,TGI,[38],> 100 µM
same,TGI,[39],> 100 µM
same,TGI,[40],> 100 µM
same,TGI,[41],> 100 µM
same,TGI,[60],> 100 µM
same,TGI,[42],> 100 µM
same,TGI,[43],> 100 µM
same,TGI,[44],> 100 µM
same,TGI,[61],> 100 µM
same,TGI,[46],> 100 µM
same,TGI,[47],> 100 µM
same,TGI,[48],> 100 µM
same,TGI,[49],> 100 µM
same,TGI,[50],> 100 µM
same,TGI,[51],> 100 µM
same,TGI,[53],> 100 µM
same,TGI,[54],> 100 µM
same,TGI,[55],> 100 µM
same,TGI,[56],> 100 µM
same,TGI,[62],> 100 µM
same,TGI,[63],> 100 µM
same,TGI,[57],> 100 µM
O=C1NC2(O)c3ccccc3C(=O)C2(O)N1c1ccccc1 (stereo unspecified),TGI,[1],> 100 µM
same,TGI,[2],> 100 µM
same,TGI,[3],> 100 µM
same,TGI,[4],> 100 µM
same,TGI,[5],> 100 µM
same,TGI,[6],> 100 µM
same,TGI,[7],> 100 µM
same,TGI,[8],> 100 µM
same,TGI,[9],> 100 µM
same,TGI,[10],> 100 µM
same,TGI,[11],> 100 µM
same,TGI,[12],> 100 µM
same,TGI,[13],> 100 µM
same,TGI,[14],> 100 µM
same,TGI,[15],> 100 µM
same,TGI,[16],> 100 µM
same,TGI,[17],> 100 µM
same,TGI,[18],> 100 µM
same,TGI,[20],> 100 µM
same,TGI,[22],> 100 µM
same,TGI,[23],> 100 µM
same,TGI,[24],> 100 µM
same,TGI,[26],> 100 µM
same,TGI,[27],> 100 µM
same,TGI,[29],> 100 µM
same,TGI,[31],> 100 µM
same,TGI,[32],> 100 µM
same,TGI,[33],> 100 µM
same,TGI,[34],> 100 µM
same,TGI,[35],> 100 µM
same,TGI,[37],> 100 µM
same,TGI,[38],> 100 µM
same,TGI,[39],> 100 µM
same,TGI,[40],> 100 µM
same,TGI,[60],> 100 µM
same,TGI,[43],> 100 µM
same,TGI,[44],> 100 µM
same,TGI,[45],> 100 µM
same,TGI,[46],> 100 µM
same,TGI,[47],> 100 µM
same,TGI,[49],> 100 µM
same,TGI,[50],> 100 µM
same,TGI,[51],> 100 µM
same,TGI,[52],> 100 µM
same,TGI,[53],> 100 µM
same,TGI,[54],> 100 µM
same,TGI,[55],> 100 µM
same,TGI,[56],> 100 µM
same,TGI,[62],> 100 µM
same,TGI,[57],> 100 µM
